Data taken from patent US20200371122A1, “BIOMARKER FOR SENESCENT CELLS” (Buck Institute for Research on Aging, priority 2017, published 2020).

Key:
Format in all cases: cell-based, human
IMR-90 fibroblasts = experiment: Sensitisation to IR-induced senescence by senescence-equivalent dose of 15d-PGJ2; settings: 1.4 μM
Source text: Senescence was induced by irradiation with 10 Gy of ionizing radiation. Non-senescent controls (proliferating or quiescent) were placed in the irradiator for an identical period of time without turning on the irradiator. Oncogene-induced senescence was induced via lentiviral overexpression of HRAS^V12, as described previously (Wiley et al. (2016) Cell Metab. 23: 303-314).
SA-Bgal activity was detected as described previously (Dimri et al. (1995) Proc. Natl. Acad. Sci. USA, 92: 9363-9367) using a commercial kit (Biovision).
(§1) For EdU labeling, cells were cultured with EdU (10 μM) for 24 h, fixed in 4% buffered formalin for 10 min, washed in PBS, and permeabilized in 0.5% Triton X-100 for 30 min. Cells were treated as instructed by the manufacturer Life Technologies Cat #C10337). For immunofluorescence, cells were blocked in 10% normal goat serum for 30 min, washed, and incubated overnight in antibodies to Ki67 (Abcam) or cleaved caspase 3 (Cell Signaling). Cell were then washed, incubated in fluorescent secondary antibodies, and mounted using vectashield mounting medium with DAPI.

MCF7 = experiment: Cleaved caspase-3 immunofluorescence in breast cancer cells; settings: p53-positive cell line, 10 μM, 3 days
Description: (§2) Human fetal lung fibroblasts (IMR-90) were cultured in Dulbecco's modified eagle medium (DMEM) supplemented with 10% FBS and penicillin/streptomycin. LL 29 (AnHa) cells were obtained from the ATCC and growth to confluence using the ATCC protocol, but were subcultured as described for IMR-90 before initiation of all experiments. Quiescence was induced by replacing culture media with media containing 0.2% FBS. MCF-7 and MDA-MB-231 breast cancer cells were cultured in RPMI supplemented with 10% FBS and penicillin/streptomycin. All cells were cultured at 3% O2, and used between 25 and 40 population doublings. All cells were mycoplasma free.
as §1

MDA-MB-231 = experiment: as above; settings: p53-mutant cell line, 10 μM, 3 days
Description: as §2, §1

In the case of `CCCCC/C=C/C=C1/C(=O)C=C[C@@H]1C/C=C\CCCC(=O)O` [15d-PGJ2], the “SA-beta-galactosidase, EdU incorporation and cell number versus DMSO” value (IMR-90 fibroblasts; 10 Gy IR, 10 days) is reported as “no differences”, the “senescence versus control cells” value (IMR-90 fibroblasts; lower doses of IR, 10 days) is reported as “more senescent relative to control cells” and the induction of senescence (IMR-90 fibroblasts; no IR) is reported as “did not induce senescence on its own”. For the same molecule, the “apoptosis (cleaved caspase-3)” value (MCF7) was “did not” and the “apoptosis (cleaved caspase-3)” value (MDA-MB-231) was “induced apoptosis”.
